The values that follow come from US7211572B2 (Japan Tobacco Inc., priority 2003, dated 2007).

The structures appear in SMILES notation. Counter-ions that a name gives are not always drawn.

By IC50 is commonly meant the concentration that inhibits the measured activity by half.

For this experiment, the target named is T1, HIV integrase (Human immunodeficiency virus type 1 group M subtype B, UniProt P12497, F1332H).
T1 construct: HIV integrase full length gene; made in house; host or cells: Escherichia coli BL21(DE3), plasmid pET21a-INH
The experiment in a line: Determination of enzyme (HIV integrase) inhibitory activity. Format: biochemical. Conditions: recombinant HIV integrase (F185H), strand transfer ELISA, absorbance at 450 nm. In outline: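 Full-length integrase with F185H, expressed in E. coli and purified, was reacted for 60 min at 37 °C with compound and biotinylated donor DNA bound to streptavidin plates. Target DNA was added for 10 min, then anti-digoxigenin-peroxidase detection at A450; IC50 from % inhibition versus enzyme-free blank.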
A general note: An ELISA detects its analyte on a solid surface through an enzyme-linked reagent.

Consider `CC(C)(C)Cc1cn2ccn(Cc3cccc(Cl)c3)c(=O)c2c(O)c1=O` [Example 126, 2-(3-chlorobenzyl)-7-(2,2-dimethylpropyl)-9-hydroxy-2H-pyrido[1,2-a]pyrazine-1,8-dione hydrochloride], for which the IC50 is 10 to 100 nM.
With `O=c1c(-c2ccccc2C(F)(F)F)cn2ccn(Cc3cccc(Cl)c3)c(=O)c2c1O` [Example 127, 2-(3-chlorobenzyl)-9-hydroxy-7-(2-trifluoromethylphenyl)-2H-pyrido[1,2-a]pyrazine-1,8-dione hydrochloride] the figure was less than 10 nM; with `COc1cccc(-c2cn3ccn(Cc4cccc(Cl)c4)c(=O)c3c(O)c2=O)c1` [Example 128, 2-(3-chlorobenzyl)-9-hydroxy-7-(3-methoxyphenyl)-2H-pyrido[1,2-a]pyrazine-1,8-dione hydrochloride], 10 to 100 nM; with `CC(C)c1cn(Cc2cccc(Cl)c2)c(=O)c2c(O)c(=O)c(Br)cn12` [Example 129, 7-bromo-2-(3-chlorobenzyl)-9-hydroxy-4-isopropyl-2H-pyrido[1,2-a]pyrazine-1,8-dione hydrochloride], 10 to 100 nM.
Then `O=c1c(-c2ccccc2F)cn2ccn(Cc3cccc(Cl)c3)c(=O)c2c1O` [Example 130, 2-(3-chlorobenzyl)-7-(2-fluorophenyl)-9-hydroxy-2H-pyrido[1,2-a]pyrazine-1,8-dione hydrochloride], with less than 10 nM.
With `CC(C)c1cn(Cc2cccc(Cl)c2)c(=O)c2c(O)c(=O)c(-c3ccccc3)cn12` [Example 131, 2-(3-chlorobenzyl)-9-hydroxy-4-isopropyl-7-phenyl-2H-pyrido[1,2-a]pyrazine-1,8-dione hydrochloride], the IC50 lay within 10 to 100 nM.
With `COc1ccccc1-c1cn2ccn(Cc3cccc(Cl)c3)c(=O)c2c(O)c1=O` [Example 132, 2-(3-chlorobenzyl)-9-hydroxy-7-(2-methoxyphenyl)-2H-pyrido[1,2-a]pyrazine-1,8-dione hydrochloride] the figure was 10 to 100 nM; with `COc1ccc(-c2cn3ccn(Cc4cccc(Cl)c4)c(=O)c3c(O)c2=O)cc1` [Example 133, 2-(3-chlorobenzyl)-9-hydroxy-7-(4-methoxyphenyl)-2H-pyrido[1,2-a]pyrazine-1,8-dione hydrochloride], less than 10 nM; with `CCc1cn2ccn(Cc3cccc(Cl)c3)c(=O)c2c(O)c1=O` [Example 134, 2-(3-chlorobenzyl)-7-ethyl-9-hydroxy-2H-pyrido[1,2-a]pyrazine-1,8-dione hydrochloride], 10 to 100 nM.
Then `Cc1cccc(C)c1-c1cn2ccn(Cc3cccc(Cl)c3)c(=O)c2c(O)c1=O` [Example 135, 2-(3-chlorobenzyl)-7-(2,6-dimethylphenyl)-9-hydroxy-2H-pyrido[1,2-a]pyrazine-1,8-dione hydrochloride], with 10 to 100 nM; and `O=c1c(-c2cccc(O)c2)cn2ccn(Cc3cccc(Cl)c3)c(=O)c2c1O` [Example 136, 2-(3-chlorobenzyl)-9-hydroxy-7-(3-hydroxyphenyl)-2H-pyrido[1,2-a]pyrazine-1,8-dione], with less than 10 nM.
With `O=C(c1ccccc1)c1cn2ccn(Cc3cccc(Cl)c3)c(=O)c2c(O)c1=O` [Example 137, 7-benzoyl-2-(3-chlorobenzyl)-9-hydroxy-2H-pyrido[1,2-a]pyrazine-1,8-dione hydrochloride] the figure was 10 to 100 nM; with `CCc1ccccc1-c1cn2ccn(Cc3cccc(Cl)c3)c(=O)c2c(O)c1=O` [Example 138, 2-(3-chlorobenzyl)-7-(2-ethylphenyl)-9-hydroxy-2H-pyrido[1,2-a]pyrazine-1,8-dione hydrochloride], 10 to 100 nM; with `CC(C)c1cn(Cc2cccc(Cl)c2)c(=O)c2c(O)c(=O)c(-c3cccc(Cl)c3)cn12` [Example 139, 2-(3-chlorobenzyl)-7-(3-chlorophenyl)-9-hydroxy-4-isopropyl-2H-pyrido[1,2-a]pyrazine-1,8-dione], 10 to 100 nM.
As for `O=c1c(Cc2ccccc2)cn2ccn(Cc3cccc(Cl)c3)c(=O)c2c1O` [Example 140, 7-benzyl-2-(3-chlorobenzyl)-9-hydroxy-2H-pyrido[1,2-a]pyrazine-1,8-dione hydrochloride], the IC50 lay in the range of 10 to 100 nM.
With `O=c1c(-c2ccccc2O)cn2ccn(Cc3cccc(Cl)c3)c(=O)c2c1O` [Example 141, 2-(3-chlorobenzyl)-9-hydroxy-7-(2-hydroxyphenyl)-2H-pyrido[1,2-a]pyrazine-1,8-dione] the figure was less than 10 nM; with `O=c1c(-c2ccc(O)cc2)cn2ccn(Cc3cccc(Cl)c3)c(=O)c2c1O` [Example 142, 2-(3-chlorobenzyl)-9-hydroxy-7-(4-hydroxyphenyl)-2H-pyrido[1,2-a]pyrazine-1,8-dione], 10 to 100 nM.
Take `Cn1cc2c(c(O)c1=O)C(=O)N(Cc1cccc(C(F)(F)F)c1)CC2` [Example 143, 8-hydroxy-6-methyl-2-(3-trifluoromethylbenzyl)-2,3,4,6-tetrahydro-2,6-naphthyridine-1,7-dione]: the IC50 was in the range of 100 to 1000 nM.
For the compound `COc1cccc(CN2CCc3cn(C)c(=O)c(O)c3C2=O)c1` [Example 144, 8-hydroxy-2-(3-methoxybenzyl)-6-methyl-2,3,4,6-tetrahydro-2,6-naphthyridine-1,7-dione], the IC50 was 10 to 100 nM.
As for `Cn1nc2ccn(Cc3cccc(Cl)c3)c(=O)c2c(O)c1=O` [Example 145, 6-(3-chlorobenzyl)-4-hydroxy-2-methyl-2,6-dihydropyrido[4,3-c]pyridazine-3,5-dione], the half-inhibitory concentration (IC50) was in the range of 100 to 1000 nM.
Regarding `O=c1ccn2ncn(Cc3cccc(Cl)c3)c(=O)c2c1O` [Example 146, 3-(3-chlorobenzyl)-5-hydroxy-3H-pyrido[2,1-f][1,2,4]triazine-4,6-dione], the IC50 was in the range of 100 to 1000 nM.
Then `COC(=O)c1cn2ccn(Cc3cccc(Cl)c3)c(=O)c2c(O)c1=O` [Example 147, methyl 2-(3-chlorobenzyl)-9-hydroxy-1,8-dioxo-1,8-dihydro-2H-pyrido[1,2-a]pyrazine-7-carboxylate hydrochloride], with 10 to 100 nM; and `Cn1ccnc1-c1cn2ccn(Cc3cccc(Cl)c3)c(=O)c2c(O)c1=O` [Example 148, 2-(3-chlorobenzyl)-9-hydroxy-7-(1-methyl-1H-imidazol-2-yl)-2H-pyrido[1,2-a]pyrazine-1,8-dione hydrochloride], with 10 to 100 nM.
Then `CC(C)C(=O)c1cn2ccn(Cc3cccc(Cl)c3)c(=O)c2c(O)c1=O` [Example 149, 2-(3-chlorobenzyl)-9-hydroxy-7-isobutyryl-2H-pyrido[1,2-a]pyrazine-1,8-dione hydrochloride], with less than 10 nM; and `CC(C)OC(=O)c1cn2ccn(Cc3cccc(Cl)c3)c(=O)c2c(O)c1=O` [Example 150, isopropyl 2-(3-chlorobenzyl)-9-hydroxy-1,8-dioxo-1,8-dihydro-2H-pyrido[1,2-a]pyrazine-7-carboxylate], with 10 to 100 nM; and `O=c1ccn2ccn(Cc3ccc(Cl)cc3)c(=O)c2c1O` [Example 151, 2-(4-chlorobenzyl)-9-hydroxy-2H-pyrido[1,2-a]pyrazine-1,8-dione hydrochloride], with 10 to 100 nM.
With `O=C(O)c1cn2ccn(Cc3cccc(Cl)c3)c(=O)c2c(O)c1=O` [Example 152, 2-(3-chlorobenzyl)-9-hydroxy-1,8-dioxo-1,8-dihydro-2H-pyrido[1,2-a]pyrazine-7-carboxylic acid hydrochloride] the figure was 100 to 1000 nM.
